In patent US20120149708A1, “MODULATORS OF VIRAL TRANSCRIPTION, AND METHODS AND COMPOSITIONS THEREWITH” (George Mason University, priority 2010, published 2012):

Tests used:
3′TAR and 5′TAR microRNA = assay: Poly-A RT-PCR of TAR microRNA in TZM-bl cells with or without TSA; format: cell-based, HIV-1; conditions: for 3′ TAR microRNA amount: non-TSA treated TZM-bl cells, Flavopiridol 50 nm, CR8 100 nm, CR8#13 100 nm
Procedure: RNA was extracted 48 hrs-post drug treatment. 500 ng of RNA from the microRNA-enriched fraction was used to generate cDNA using the Quantimir kit (SBI) in order to poly adenylate small RNA species. RT reactions were performed followed by PCR in which a universal reverse primer was provided by the manufacturer. Specific microRNA forward primers are identical in sequence to the microRNA of interest. PCR products corresponding to the amplified microRNAs were separated in a 3.5% (w/v) agarose gel. The PCR products are at around 67 bp as compared with the Fermentas 1 kb DNA Plus Ladder. Increased levels of 3′TAR microRNA were produced post CR8#13 treatment.
For poly-A RT-PCR detection of microRNAs, 500 ng of RNA from the microRNA-enriched fraction was used to generate cDNA using the Quantimir kit (SBI) according to the manufacturer's protocol. Briefly, small RNA species are poly-adenylated and then reverse transcription reactions are performed with a company-provided RT primer. For PCR, a universal reverse primer is provided by the manufacturer. Specific microRNA forward primers are identical in sequence to the microRNA of interest. PCR products corresponding to the amplified microRNAs were separated in a 3.5% (w/v) agarose gel and quantified using the Kodak 1D software.
To determine whether the cdk inhibitors Flavopiridol, CR8, and CR8#13 increased levels of TAR microRNA in the TSA-treated and control TZM-bl cells total RNA was extracted from both TSA treated and control cells treated with Flavopiridol, CR8, and CR8#13 and processed for RT-PCR detection of microRNAs, specifically, for the presence of 3′TAR and 5′TAR molecules.

[1] = test system: ACH2 cells (HIV-1 infected); assay: Cell viability by trypan blue exclusion, 48 hours; format: cell-based; conditions: HIV-1 infected
Procedure: TZM-bl cell lines were grown in Dulbecco's modified Eagle's medium supplemented with fetal bovine serum (FBS) (10%, v/v), 2 mM L-glutamine, and antibiotics (penicillin 100 U/ml, streptomycin […]) (cDMEM). HCT116 WT and HCT116 Dicer−/−cell lines were grown in McCoy's medium supplemented with FBS (10%, v/v), 2mM L-glutamine, and antibiotics (penicillin 100 U/ml, streptomycin […]). CEM, ACH2, Jurkat and U937 cells were grown in RPMI 1640 supplemented with FBS, L-glutamine, and antibiotics (penicillin 100 U/ml, streptomycin […]). All cell lines were maintained at 37° C. in 5% (v/v) CO2. […]
In brief, the inhibition studies were carried out as follows. HIV-1 infected cells ACH2, J1.1, OM10.1, U1 and uninfected CEM, Jurkat T-cells, and U937 were cultured in media. The appropriate inhibitor was added at a concentration of 10 μM. Cells were treated for 48 hours and cell viability was determined using trypan blue exclusion method. Results of such a screen for 19 inhibitors is shown in Table 1 where percent dead cells are indicated each drug tested.
Again HIV-1 infected and uninfected cells were treated with eighteen Formula I compounds at a drug concentration of 50 nm. Forty-eight hours after treatment, cytotoxicity was determined by trypan blue dye exclusion. Percent inhibition was calculated after obtaining the cell density for each well of the tissue culture plate at the end of 48 hrs.

[2] = test system: HIV-1 (pNL4.3) in Jurkat T-cells; assay: Reverse transcriptase assay of supernatants, pNL4.3 electroporated cells; format: cell-based; conditions: Flavopiridol 200 nm, CR8 100 nm, CR8#13 50 nm, 48 hours
Procedure: (§1) Jurkat T-cell and promonocytic U937 cells were electroporated with 5 μg pNL4.3 followed the next day by drug treatment of Flavopiridol (200 nm), CR8 (100 nm) or CR8#13 (50 nm). Cell supernatants were collected at 48 hours post drug treatment. Viral supernatants (10 μl) were incubated in a 96-well plate with reverse transcriptase (RT) reaction mixture overnight at 37° C., and 10 μl of the reaction mix was spotted on a DEAE Filtermat paper, washed with 5% (w/v) Na2HPO4 followed by water wash, and then dried completely. RT activity was measured in a Betaplate counter.
(§2) For electroporations, Jurkat and U937 cells were resuspended at 3 million cells in 250 μl of RPMI. Five microgram of pNL4-3 was then added to the cell suspension. Cells were pulsed a single time at 210V, 800 μF, and low resistance. Electroporated cells were immediately transferred to RPMI-1640 with L-glutamine and Penicillin/Streptomycin with 10% (v/v) FBS and plated in 6 well plates. Twenty four hours-post electroporation, cells were treated with drugs for additional 48 hrs and harvested for RT analysis. RT assays were performed as described in ((Guendel et al. 2009; Easley et al. 2010).
(§3) The present inventors examined whether Formula I, or Formula II compounds were effective inhibiting viral transcription in cell lines infected with an HIV-1 construct. Thus, Jurkat T-cells and promonocytic U937 cells were transfected with pNL4.3 and then treated with Flavopiridol, CR8 and CR8#13. Similar to monocytes, the Dicer levels are low to undetectable in promonocytic cells (FIG. 6) and was detectable only when these cells had differentiated into macrophages with PMA treatment.
(§4) Following drug treatment cell supernatants were collected and processed for exogenous reverse transcriptase (RT) levels.

[3] = test system: HIV-1 (pNL4.3) in promonocytic U937 cells; assay: as above; format: cell-based; conditions: Flavopiridol 200 nm, CR8 100 nm, CR8#13 50 nm, 48 hours
Procedure: as §1, §2, §3, §4

[4] = test system: HIV-1 infected and uninfected cells; assay: Classification of inhibitors by effect on viability of infected versus uninfected cells; format: cell-based; conditions: high
Description: The inhibitors were classified into three categories: high, moderate or poor, according to their effect on cellular viability in both HIV-1 infected and uninfected cells. Among the compounds tested in this study, CR8, a purine analog bearing a 2-pyridyl group para to the phenyl ring position 6 of the purine was the most promising drug candidate that killed HIV-1 infected cells, while having little or no effect on the death of uninfected cells.

[5] = test system: uninfected CEM, Jurkat T-cells, and U937 cells; assay: MTT assay, uninfected cells; format: cell-based
Procedure: FIGS. 1 and 2 show screening results of CR8 derivatives on Tat-dependent transcription HIV-1 LTR. […] TZM-bl cells were transfected with 1 ug of Tat and treated the next day with DMSO, or the indicated CR8 derivative compounds at 50 nm. 48 hrs-post drug treatment, luciferase activity of the firefly luciferase was measured with the BrightGlo Luciferase Assay and luminescence was read from a 96 well plate on an EG&G Berthold luminometer. Assays were performed in triplicate, average and standard deviations are shown.
Quantitative MTT assays were performed (FIG. 2), to further validate the cell growth inhibitory activity of certain Formula I compounds. In this study, cultured, infected ACH2, J1.1, OM10.1, U1 and uninfected CEM, Jurkat T-cells, and U937 cells were brought in contact with Formula I compounds CR8, MRT-033, and BJFP1154 (CR8#13). Cell growth inhibition study was performed at two different concentrations of the inventive compounds, a low concentration of 50 nm, and high concentration of 10 μM.

Compound	3′ TAR microRNA amount (3′TAR and 5′TAR microRNA)	Inhibition Percentage ACH2 ([1]; 50 nM, 48 hrs)	RT levels in supernatant [2]	RT levels in supernatant [3]	Selectivity ([4]; 50 nM, moderate or poor)	death of uninfected cells (MTT) ([5]; high concentration of 10 μM)	3′ and 5′ TAR microRNA amount (3′TAR and 5′TAR microRNA; TZM-bl cells treated with TSA for 7 days, then drug)	inhibition at 10 µM ([1]; Human immunodeficiency virus 1, ACH-2, 48 h, 10 μM, 48 hours, read-out: % Inhibition (percent dead cells) ACH2)	Selectivity ([4]; 10 μM, moderate or poor by effect on viability of infected and uninfected cells)	cell inhibition of uninfected cells (MTT) ([5]; 50 nm and 10 μM)
CC(C)c1cnn2c(NCc3ccc(-c4ccccn4)cc3)nc(NC[C@H](O)CO)nc12.O=C(O)/C=C/C(=O)O [BJFP1154]	significantly increased amount of the 3′ TAR microRNA	− (1-5%)	effective at decreasing RT levels	not U937 monocytic cells	Poor	marginal, if any death of uninfected cells				
CC[C@@H](CO)Nc1nc(NCc2ccc(-c3ccccn3)cc2)c2ncn(C(C)C)c2n1 [CR8]	significantly increased amount of the 3′ TAR microRNA		effective at decreasing RT levels	not U937 monocytic cells			higher amounts of both 3′ and 5′ TAR microRNA	90%	High	some cell inhibition activity of uninfected cells
